Reference: patent US8158804B2, “Chelating agents” (GE Healthcare AS, priority 2007, dated 2012)

Experiments:
[1] = Stability of gadolinium chelates, spectrophotometric (UV absorbance vs pH) method; type: physicochemical; details: chelant with 1 equivalent of gadolinium (III); calculated from UV absorbance as a function of pH
Description: Stabilities of the gadolinium complexes of the chelates were measured by a spectrophotometric method using the principle that there is a change in UV absorbance of these compounds as the hydroxyl group on the pyridinone ring deprotonates. There is a significant decrease in the wavelength of the UV maximum as the proton is removed. The UV absorbance of the chelants at different pH's was determined to measure the UV absorbance at different degrees of protonation. The measurements were then repeated in the presence of 1 equivalent of gadolinium (III) and the effect on the UV absorbtion as a function of pH measured. A software program was used to analyze the data and calculate the affinity of the chelates for gadolinium.

[2] = Reference 1; cited from earlier work
[3] = Solubility of gadolinium chelates in water by HPLC analysis; type: physicochemical; details: aqueous solution at 20° C.; for Water solubility of chelate: equilibration by shaking for a few hours
Description: The solubility of the gadolinium chelates in table 2 was measured by HPLC analysis of the concentrations of compound in aqueous solutions at 20° C. after equilibration by shaking for a few hours. […] This indicated the saturation point of the solution.

[4] = Measurement of longitudinal relaxivity (T1 by inversion recovery method); type: physicochemical
Description: T1 was measured by the inversion recovery method as described by Timothy D. W. Claridge, in “High-Resolution NMR Techniques in Organic Chemistry” Pergamon Amsterdam 1999, 26-30.

Gd Chelate STABILITY CONSTANT (LogKGdL) [1] | Water solubility of chelate [3] [µg/mL] | Compound | also measured
21.287 |  | COCCn1ccc(=O)c(O)c1C(=O)NCC1CC(CNC(=O)c2c(O)c(=O)ccn2CCOC)CC(CNC(=O)c2c(O)c(=O)ccn2CCOC)C1 (stereo not drawn) [Example 3, Cis, cis 1,3,5,tris((3-hydroxy-1-(2-methoxyethyl)-4-oxo-4H-pyrid-2yl-)carboxyaminomethyl)-cyclohexane] | 
15.716 |  | COCCn1ccc(=O)c(O)c1C(=O)NCCCC(CCCNC(=O)c1c(O)c(=O)ccn1CCOC)(CCCNC(=O)c1c(O)c(=O)ccn1CCOC)NC(=O)c1ccccc1 [Example 11, Tris((3-hydroxy-1-(2-methoxyethyl)-4-oxo-4H-pyridin-2-yl)-carboxyaminopropyl)-phenylcarboxyaminomethane] | 
18.284 |  | O=C(NC(CCCNC(=O)c1c(O)c(=O)ccn1CCO)(CCCNC(=O)c1c(O)c(=O)ccn1CCO)CCCNC(=O)c1c(O)c(=O)ccn1CCO)c1ccccc1 [Example 12] | 
18.650 |  | O=C(NCCN(CCNC(=O)c1occc(=O)c1O)CCNC(=O)c1occc(=O)c1O)c1occc(=O)c1O [Standard, reference compound] | pGd [2]: 19.27
 | <500 | Bis aquo tris(3-hydroxy-1-(2-methoxyethyl)-4-oxo-4H-pyridin-2yl-)carboxyaminoeth-2-yl)amine gadolinium (III) salt [Example 1e] | r1 at 10 MHz ([4]; 10 MHz): 9.7 mM⁻¹ s⁻¹; r1 at 20 MHz ([4]; 20 MHz): 11.6 mM⁻¹ s⁻¹; r1 at 60 MHz ([4]; 60 MHz): 9.5 mM⁻¹ s⁻¹
 | >200000 | Bis aquo tris((3-hydroxy-1-(2,3,4,5,6-pentahydroxyhexane)-4-oxo-4H-pyridin-2yl-]carboxyaminoeth-2-yl)amine gadolinium (III) [Example 8] | 
 |  | Bis aquo tris((3-hydroxy-1-(2,3,4-trihydroxybutane)-4-oxo-4H-pyridin-2yl-)carboxyaminoeth-2-yl)amine gadolinium (III) salt [Example 7] | Water solubility of chelate (kinetic solubility) ([3]; kinetic solubility, some compound precipitates on standing): ~10 mg/ml* *Kinetic solubility, but some compound precipitates on standing
 | 3400 | Bis aquo tris((3-hydroxy-1-(2,3-dihydroxypropane)-4-oxo-4H-pyrid-2yl-)carboxyaminoeth-2-yl)-amine gadolinium (III) salt [Example 6] | 
 | <1000 | Bis aquo tris((3-hydroxy-1-(2-(2-hydroxyethoxy)ethyl)-4-oxo-4H-pyridin-2yl-)carboxyaminoeth-2-yl)amine gadolinium (III) salt [Example 5] | 
17.929 | <500 | Bis aquo tris(-3-hydroxy-1-(2-hydroxyethyl)-4-oxo-4H-pyridin-2yl-)carboxyaminoeth-2-yl)-amine gadolinium (III) salt [Example 4] | 
